Data on 15 compounds can be found in patent publication US7166310B2, “Stable extract from Hypericum perforatum L., method for the production thereof and its use as a topical medicament” (Dr. Willmar Schwabe GmbH & Co., priority 2000, dated 2007).

The subject of data set [1] is Herpes simplex 1 strain of virus (HSV-1). The experiment in a line: HSV-1 "deactivation test" (virus titre on verocells). It counts as cell-based. To be noted: for virus titre: virus applied 1.5×10^7 TCID50.
For data set [2] the test system is unchanged. The experiment in a line: HSV-1 "inhibition test" (virostatic action in verocells). Format: cell-based. To be noted: Human alphaherpesvirus 1; HSV-1 3000 TCID50/ml, 48–72 hours.
Another data set concerns verocells. The experiment in a line: Cyto-toxicity on verocells, MTT test. To be noted: 7 days. It counts as cell-based, ape. On the procedure: Various concentrations of the extract according to the invention and hypericin were incubated in the incubator for 7 days to assess the cyto-toxic effect of verocells. Determining of cyto-toxicity was performed using an MTT test following a published procedure (Cinatl J. jr; Cinatl, J; Rabenau, H, Gümel, H; Doerr, H. W; (1993); “In-vitro anti-human immuno-deficiency virus activity of 2′, 3 dideoxynucleotides and their effect on clonal growth of hæmopoietic cells from human bone-marrow”, Arzneimittel-Frsch./Drug Res. 43, 622–625).
Assessment of the cyto-toxic concentration (TC50) and the virus-inhibiting concentration (IC50) was performed using linear regression. To calculate the therapeutic index, the formula TC50/IC50 was applied.
(In general: Tetrazolium dyes change colour on reduction, which living cells bring about.)

Data set [3] deals with Oleum Crotonis-ear-oedema. As to the kind of experiment: Oleum Crotonis-ear-oedema model, ear weight. Format: in vivo. The settings on record: 250 μg topically on the ear, mice, 6 hours. On the procedure:
(§1) The anti-phlogistic effects of hypericum extract according to the invention, also those of isolated ingredients, were tested in the Oleum Crotonis-ear-oedema model on male NRMI mice. After inducing a narcosis by the intra-peritonal injection of 60 mg/kg sodium-pento-barbital, the test substances were applied to the right ear in 10 μl acetone, whereas the left ear was treated with 10 μl acetone alone, as a control. 30 mins later, a local inflammation was triggered at the left ear by applying 50 μg Oleum Crotonis in 10 μl acetone. After 6 hours, the animals were sacrificed and inhibition of the inflammation reaction was quantified by weighing a sample of tissue drawn from both ears, using the following formula: [1−(GT/GL]×100; in the case of GT or GL, this deals with the difference in weight between the right and left ears of animals that have been treated with the test substance (GT), or only with the solvent (GL).
(§2) The results of the investigations after applying 250 μg of the test substance or 1000 μg of the extract according to the invention to the left ear in each case are summarised in the following table.

For data set [4], the system named is myelo-peroxidase (MPO), neutrophile granulocyte accumulation. The experiment in a line: Oleum Crotonis-ear-oedema model, myelo-peroxidase in ear homogenates. It counts as in vivo. The settings on record: 250 μg topically on the ear, mice, 6 hours. As for the experimental part: as §1
Inhibition of neutrophile granulocyte accumulations in inflamed tissue was obtained by determining myelo-peroxidase (MPO) in the ear homogenates. To this end, biopsy samples were recorded in 1 ml hexadecyl-trimethyl ammonium bromide (HTAB) buffers, homogenised with a glass homogeniser at 4° C. and then given ultrasound treatment for 10 seconds in a sonicator. After centrifuging at 4° C. with 3000 g for 10 mins, the supernatant was removed and retained for analysing at −70° C. Determining the MPO was performed in micro-titre dishes after adding H2O2 and the O-dianisidine-dihydrochloride indicator as a kinetic measure, over a period of 5 mins at 450 nm. Assessment was carried out against a standard curve with horseradish peroxidase, and was obtained as an mU enzyme activity per mg of tissue.
as §2

The subject of data set [5] is human keratinocytes (HaCaT cells). As to the kind of experiment: Proliferation of human keratinocytes, 3H methyl-thymidine incorporation. To be noted: for inhibition at 10 µg/mL: Homo sapiens, HaCaT, read-out: Inhibition (proliferation of HaCaT cells). Format: cell-based. As for the experimental part: The effects of the extracts according to the invention and various ingredients on the proliferation of human keratinocytes were obtained by using the HaCaT cell-line. The cells (10,000–15,000) were disseminated in 200 μl DMEM with 5% foetal calf serum in 96-well F-form micro-titre dishes and incubated at 37° C. at absence of test substances in an incubator. Cell proliferation was determined by measuring the incorporation of ^3H methyl-thymidine (0.5 μCi/well) over the last 6 hours in the culture.
In general terms: Dividing cells build labelled thymidine or BrdU into new DNA.

For a further data set, the target named is T1, 5α reductase (Homo sapiens, UniProt P18405).
T1 construct: carried out on cells of the human prostate-cancer cell-line DU145; endogenous in cells; host or cells: DU145 (human prostate cancer cell line)
T1 sequence (P18405 1-259): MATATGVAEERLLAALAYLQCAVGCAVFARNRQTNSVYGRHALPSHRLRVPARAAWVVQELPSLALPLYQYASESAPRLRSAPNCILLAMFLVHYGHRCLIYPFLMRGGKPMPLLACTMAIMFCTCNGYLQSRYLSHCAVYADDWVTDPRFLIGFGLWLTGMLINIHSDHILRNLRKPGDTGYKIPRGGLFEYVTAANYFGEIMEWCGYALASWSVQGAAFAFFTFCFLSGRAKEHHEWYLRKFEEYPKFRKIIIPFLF
The experiment in a line: Inhibition of 5α reductase in DU145 cells. Format: cell-based.

Another data set relates to Methicillin-resistant SA. Format: cell-based, Staphylococcus aureus. As for the experimental part:
(§3) Anti-microbial effects against various gram-positive bacteria were determined using the micro-dilution method. In the table below, we show the minimum inhibition concentration (MIC) and the minimum bactericide concentration (MBC) in each case.

The subject of another data set is Enterococcus durans. The experiment in a line: MIC, micro-dilution method. Format: cell-based. On the procedure: as §3
For orientation: Dilution methods test growth across graded concentrations, often in twofold steps.

A further data set relates to Enterococcus fæcalis. As to the kind of experiment: MIC, micro-dilution method. Format: cell-based. On the procedure:
as §3

Another data set relates to Enterococcus fæcium. As to the kind of experiment: MIC, micro-dilution method. Format: cell-based. On the procedure:
as §3

A further data set relates to Listeria monocytogenes. The experiment in a line: MIC, micro-dilution method. Format: cell-based. On the procedure:
as §3

For data set [6], the system named is Staphylococcus aureus (SA). The experiment in a line: MIC, micro-dilution method. Format: cell-based. As for the experimental part:
as §3

In data set [7] the test system is Staphylococcus saprophyticus. As to the kind of experiment: MIC, micro-dilution method. Format: cell-based. On the procedure:
as §3

Another data set has as its system Streptococcus pyogenes. The experiment in a line: MIC, micro-dilution method. It counts as cell-based. As for the experimental part:
as §3

The next data set concerns DU145 cells. To be noted: some 30 μg/ml.
Setting [8] is: DU-145, read-out: Inhibition of 5α reductase.
Setting [9] is: DU-145, 30 μg/ml, DU145 cells, 18 hours, read-out: Inhibition of 5α reductase.

Values after ≈ are worked out from the molar mass of the structure shown. Where two headings read alike, the source gives them in different places.

Usually IC50 stands for the midpoint of a concentration-inhibition curve. For orientation: MIC means the least concentration at which growth counts as inhibited. Low values mean inhibition by little substance, high ones a need for much substance.

In the case of `Cc1cc(O)c2c(=O)c3c(O)cc(O)c4c5c(O)cc(O)c6c(=O)c7c(O)cc(C)c8c1c2c(c34)c(c78)c65` [Hypericin], the virus titre in data set [1] (10 μg/ml) is listed as 4.7 × 10^6 TCID50. Further, in data set [1] (100 μg/ml), the virus-deactivating action result is “approx. 4 log10 stages” and the virus titre is 4.7 × 10^3 TCID50. For the same compound, half-maximal inhibition in [2] (IC50) required 2.2 µg/mL (≈ 4.36 µM). The same compound came in with a TC50 in the data set on verocells of 74.3 µg/mL (≈ 147 µM). The Oedema inhibition in data set [3] is reported as 6%. This compound also registered an MPO inhibition in data set [4] of 48%. Besides, the inhibition at 10 µg/mL in data set [5] (10 μg/ml) was 100%. Besides, the inhibition at 30 µg/mL on 5α reductase (setting [8]) was -24%.
For `O=c1c(O)c(-c2cc(O)c(O)c(O)c2)oc2cc(O)cc(O)c12` [Myricetin], the Oedema inhibition in data set [3] came out at 17%. For the same compound, the MPO inhibition in data set [4] turned out to be 75%. Further, in data set [5] (10 μg/ml), the inhibition at 10 µg/mL amounted to 26%. The inhibition at 30 µg/mL on 5α reductase (setting [9]) was found to be 29%.
With `Oc1ccccc1O` [Catechol], in data set [3], the Oedema inhibition was determined as 36%. In [4], this compound had an MPO inhibition of 41%. Besides, the inhibition at 10 µg/mL in data set [5] turned out to be 14%. In addition, at 5α reductase (setting [9]), the inhibition at 30 µg/mL was -15%.
In the case of `O=C(/C=C/c1ccc(O)c(O)c1)O[C@@H]1C[C@](O)(C(=O)O)C[C@@H](O)[C@H]1O` [Chlorogenic acid], the Oedema inhibition in data set [3] came out at 14%. In addition, the MPO inhibition in data set [4] amounted to 16%. In addition, in data set [5] (10 μg/ml), the inhibition at 10 µg/mL is -9%. In addition, the inhibition at 30 µg/mL at 5α reductase (setting [9]) came to 3%.
Taken in the same sequence, the figures for `O=c1c(O)c(-c2ccc(O)c(O)c2)oc2cc(O)cc(O)c12` [Quercetin] were 82%, 97%, -29% and 46%.
For `O=c1c(O[C@@H]2O[C@H](CO)[C@H](O)[C@H](O)[C@H]2O)c(-c2ccc(O)c(O)c2)oc2cc(O)cc(O)c12` [Hyperoside], the Oedema inhibition in data set [3] was −27%. Further, the MPO inhibition in [4] came to 39%. The inhibition at 10 µg/mL in data set [5] (10 μg/ml) was -8%. Further, the inhibition at 30 µg/mL on 5α reductase (setting [9]) is -1%.
Consider `C[C@@H]1O[C@@H](Oc2c(-c3ccc(O)c(O)c3)oc3cc(O)cc(O)c3c2=O)[C@H](O)[C@H](O)[C@H]1O` [Quercitrin], for which the Oedema inhibition in data set [3] is recorded as −26%. Moreover, in data set [4], the MPO inhibition came to 23%. Moreover, in data set [5], the inhibition at 10 µg/mL was 35%. Moreover, the inhibition at 30 µg/mL at 5α reductase (setting [8]) was -29%.
Take `O=c1cc(-c2ccc(O)c(O)c2)oc2cc(O)cc(O)c12` [Luteolin]: the Oedema inhibition in [3] was 70%. The compound also gave an MPO inhibition in [4] of 91%. Moreover, the inhibition at 10 µg/mL in data set [5] (10 μg/ml) was 92%. In addition, on 5α reductase (setting [9]), the inhibition at 30 µg/mL worked out at 42%.
Camphor oil: the Oedema inhibition in data set [3] amounted to 91%. In data set [4], this compound showed an MPO inhibition of 96%. Moreover, the “Inhibition (proliferation of HaCaT cells)” value in data set [5] (10 μg/ml) is reported as 44%. Besides, on 5α reductase (30 μg/ml, DU145 cells, 18 hours), the “Inhibition of 5α reductase” value worked out at 12%.
With Hyperforin Na, the “Inhibition (proliferation of HaCaT cells)” value in data set [5] (10 μg/ml) was found to be 97%. Moreover, the “Inhibition of 5α reductase” value at 5α reductase (5 μg/ml, DU145 cells, 18 hours) is given as 10%.
Take `O=c1cc(-c2ccc(O)c(-c3c(O)cc(O)c4c(=O)cc(-c5ccc(O)cc5)oc34)c2)oc2cc(O)cc(O)c12` [Amento-flavone]: in data set [3], the Oedema inhibition was determined as 82%. Besides, in data set [4], the MPO inhibition was determined as 70%. In data set [5] (10 μg/ml), the inhibition at 10 µg/mL was 68%. At 5α reductase (setting [9]), the inhibition at 30 µg/mL is -15%.
Turning to `CC(C)=CCC[C@]1(C)[C@@H](CC=C(C)C)C[C@@]2(CC=C(C)C)C(=O)[C@]1(C(=O)C(C)C)C(=O)C(CC=C(C)C)=C2O` [Hyperforin], the minimum inhibitory concentration (MIC) against Methicillin-resistant SA was 31.25 µg/mL (≈ 58.2 µM); in the data set with Enterococcus durans it was 125 µg/mL (≈ 233 µM); against Enterococcus fæcalis it was 125 µg/mL (≈ 233 µM); with Enterococcus fæcium it was 125 to 250 µg/mL; against Listeria monocytogenes it was 15.6 to 31.25 µg/mL; in data set [6], 62.5 µg/mL (≈ 116 µM). In addition, the figures for the MIC (in [7]; against Streptococcus pyogenes) were 62.5 to 125 µg/mL and 15.6 µg/mL (≈ 29.1 µM), respectively. Moreover, the Oedema inhibition in [3] came to 65%. In [4], this compound showed an MPO inhibition of 62%. In the data set with DU145 cells, the cyto-toxicity entry is on record as “cyto-toxic”.
On to `O=c1c(O[C@@H]2O[C@H](CO)[C@@H](O)[C@H](O)[C@H]2O)c(-c2ccc(O)c(O)c2)oc2cc(O)cc(O)c12` [Isoquercitrin], for which the Oedema inhibition in data set [3] is on record as −29%. The compound further displayed an MPO inhibition in data set [4] of 73%. Moreover, the inhibition at 10 µg/mL in data set [5] (10 μg/ml) is 83%. Besides, at 5α reductase (setting [9]), the inhibition at 30 µg/mL was -5%.
Taken in the same sequence, the figures for `Oc1cc(O)c2c(c1)O[C@H](c1ccc(O)c(O)c1)[C@H](O)C2` [Epicatechol] were 1%, 45%, 13% and -6%.
Taken in the same sequence, the figures for `C[C@@H]1O[C@@H](OC[C@H]2O[C@@H](Oc3c(-c4ccc(O)c(O)c4)oc4cc(O)cc(O)c4c3=O)[C@H](O)[C@@H](O)[C@@H]2O)[C@H](O)[C@H](O)[C@H]1O` [Rutin] were 38%, 55%, 9% and -6%.
